Results reported in PMC11157767 (Molecular Cancer, 2024).

System: TRIM24-MET-i cells
Conditions: GSEA v. DMSO
Protocol: The number of unique and shared differentially expressed genes between each comparison are shown in parentheses. A linear regression line is depicted along with Pearson’s correlation coefficient (r) and its associated p-value. […] Common negatively enriched genesets between all three comparisons are in bold. c, Heatmaps showing expression of Hallmark_Myc_Target_v1/2 genes for indicated cells and treatment comparisons (TRIM-MET cells were treated in vitro, TFG-MET cells in vivo). Select leading edge genes from GSEA are labeled.

## CNC(=O)c1ccc(-c2cnc3ncc(Cc4ccc5ncccc5c4)n3n2)cc1F [Capmatinib]
  ES GOBP_NCRNA_METABOLIC_PROCESS: -0.6039
  ES GOBP_RIBONUCLEOPROTEIN_COMPLEX_BIOGENESIS: -0.6363
  ES GOBP_RIBOSOME_BIOGENESIS: -0.7035
  ES GOBP_RRNA_METABOLIC_PROCESS: -0.6814
  ES GOCC_90S_PRERIBOSOME: -0.8257
  ES GOCC_NUCLEOLUS: -0.4698
  ES GOCC_PRERIBOSOME: -0.8127
  ES GOCC_RIBONUCLEOPROTEIN_COMPLEX: -0.4981
  ES GOCC_SMALL_SUBUNIT_PROCESSOME: -0.8233
  ES GOMF_CATALYTIC_ACTIVITY_ACTING_ON_RNA: -0.4916
  ES GOMF_HYDROLASE_ACTIVITY_ACTING_ON_ACID_ANHYDRIDES: -0.3694
  ES GOMF_MRNA_BINDING: -0.4686
  ES GOMF_RIBONUCLEOPROTEIN_COMPLEX_BINDING: -0.568
  ES GOMF_SNORNA_BINDING: -0.8035
  ES HALLMARK_ADIPOGENESIS: -0.2484
  ES HALLMARK_ALLOGRAFT_REJECTION: -0.3747
  ES HALLMARK_ANDROGEN_RESPONSE: -0.535
  ES HALLMARK_ANGIOGENESIS: -0.5762
  ES HALLMARK_APICAL_JUNCTION: -0.2832
  ES HALLMARK_APICAL_SURFACE: 0.5506
  ES HALLMARK_APOPTOSIS: -0.4219
  ES HALLMARK_BILE_ACID_METABOLISM: 0.4031
  ES HALLMARK_CHOLESTEROL_HOMEOSTASIS: -0.4011
  ES HALLMARK_COAGULATION: -0.4551
  ES HALLMARK_COMPLEMENT: -0.4981
  ES HALLMARK_DNA_REPAIR: -0.2565
  ES HALLMARK_E2F_TARGETS: -0.3059
  ES HALLMARK_EPITHELIAL_MESENCHYMAL_TRANSITION: -0.2783
  ES HALLMARK_ESTROGEN_RESPONSE_EARLY: -0.385
  ES HALLMARK_ESTROGEN_RESPONSE_LATE: -0.2661
  ES HALLMARK_FATTY_ACID_METABOLISM: 0.234
  ES HALLMARK_G2M_CHECKPOINT: -0.3396
  ES HALLMARK_GLYCOLYSIS: -0.3498
  ES HALLMARK_HEDGEHOG_SIGNALING: -0.4541
  ES HALLMARK_HEME_METABOLISM: 0.2869
  ES HALLMARK_HYPOXIA: -0.3596
  ES HALLMARK_IL2_STAT5_SIGNALING: -0.5259
  ES HALLMARK_IL6_JAK_STAT3_SIGNALING: -0.2773
  ES HALLMARK_INFLAMMATORY_RESPONSE: -0.4368
  ES HALLMARK_INTERFERON_ALPHA_RESPONSE: 0.32
  ES HALLMARK_INTERFERON_GAMMA_RESPONSE: -0.2553
  ES HALLMARK_KRAS_SIGNALING_DN: 0.2731
  ES HALLMARK_KRAS_SIGNALING_UP: -0.491
  ES HALLMARK_MITOTIC_SPINDLE: -0.3333
  ES HALLMARK_MTORC1_SIGNALING: -0.5528
  ES HALLMARK_MYC_TARGETS_V1: -0.6393
  ES HALLMARK_MYC_TARGETS_V2: -0.8185
  ES HALLMARK_MYOGENESIS: -0.217
  ES HALLMARK_NOTCH_SIGNALING: -0.4058
  ES HALLMARK_OXIDATIVE_PHOSPHORYLATION: -0.3105
  ES HALLMARK_P53_PATHWAY: -0.2547
  ES HALLMARK_PANCREAS_BETA_CELLS: 0.3447
  ES HALLMARK_PEROXISOME: 0.2566
  ES HALLMARK_PI3K_AKT_MTOR_SIGNALING: -0.3267
  ES HALLMARK_PROTEIN_SECRETION: -0.3279
  ES HALLMARK_REACTIVE_OXYGEN_SPECIES_PATHWAY: -0.337
  ES HALLMARK_SPERMATOGENESIS: 0.1852
  ES HALLMARK_TGF_BETA_SIGNALING: -0.5788
  ES HALLMARK_TNFA_SIGNALING_VIA_NFKB: -0.6019
  ES HALLMARK_UV_RESPONSE_DN: -0.3389
  ES HALLMARK_UV_RESPONSE_UP: -0.4065
  ES HALLMARK_WNT_BETA_CATENIN_SIGNALING: -0.3938
  ES HALLMARK_XENOBIOTIC_METABOLISM: 0.19
  ES KRIGE_RESPONSE_TO_TOSEDOSTAT_6HR_DN: -0.5928
  ES KRIGE_RESPONSE_TO_TOSEDOSTAT_24HR_DN: -0.6267
  ES LEE_BMP2_TARGETS_DN: -0.6601
  ES PUJANA_CHEK2_PCC_NETWORK: -0.5659
  ES WEI_MYCN_TARGETS_WITH_E_BOX: -0.6789
  NES GOBP_NCRNA_METABOLIC_PROCESS: -2.536
  NES GOBP_NCRNA_PROCESSING: -2.602
  NES GOBP_RIBONUCLEOPROTEIN_COMPLEX_BIOGENESIS: -2.684
  NES GOBP_RIBOSOME_BIOGENESIS: -2.8623
  NES GOBP_RRNA_METABOLIC_PROCESS: -2.7
  NES GOCC_90S_PRERIBOSOME: -2.336
  NES GOCC_NUCLEOLUS: -2.057
  NES GOCC_PRERIBOSOME: -2.789
  NES GOCC_RIBONUCLEOPROTEIN_COMPLEX: -2.151
  NES GOCC_SMALL_SUBUNIT_PROCESSOME: -2.456
  NES GOMF_CATALYTIC_ACTIVITY_ACTING_ON_RNA: -2.047
  NES GOMF_HYDROLASE_ACTIVITY_ACTING_ON_ACID_ANHYDRIDES: -1.614
  NES GOMF_MRNA_BINDING: -1.915
  NES GOMF_RIBONUCLEOPROTEIN_COMPLEX_BINDING: -2.117
  NES GOMF_SNORNA_BINDING: -2.308
